Reference: ChEMBL document CHEMBL3885881, “DrugMatrix”

Organism: Rattus norvegicus
Assay: DrugMatrix - Regimen: Daily Repeat
Format: toxicity, organism-based, Sprague-Dawley
Parameters: regimen Daily Repeat, gender Male, age 6-8 weeks
Conditions: in vivo, iv, vehicle 100 % SALINE; for ABSOLUTE BASOPHIL / ABSOLUTE EOSINOPHIL / ABSOLUTE LYMPHOCYTE / ABSOLUTE MONOCYTE / ABSOLUTE SEGMENTED NEUTROPHIL / BASOPHIL / EOSINOPHIL / ERYTHROCYTE COUNT / HEMATOCRIT / HEMOGLOBIN / LEUKOCYTE COUNT / LYMPHOCYTE / MEAN CORPUSCULAR HEMOGLOBIN / MEAN CORPUSCULAR HEMOGLOBIN CONCENTRATION / MEAN CORPUSCULAR VOLUME / MONOCYTE / NEUTROPHIL / NUCLEATED RED BLOOD CELLS / PLATELET COUNT: tissue Blood; for ALANINE AMINOTRANSFERASE / ALBUMIN / ALKALINE PHOSPHATASE / ASPARTATE AMINOTRANSFERASE / BLOOD UREA NITROGEN / CARBON DIOXIDE / CHLORIDE / CHOLESTEROL / CREATINE PHOSPHOKINASE / CREATININE / GLUCOSE / LACTATE DEHYDROGENASE / LIPASE / PHOSPHORUS / POTASSIUM / SODIUM / TOTAL BILIRUBIN / TOTAL PROTEIN / URIC ACID: tissue Plasma
[1] = 0 mg/kg, 72 h, dose level Control, time 3 day
[2] = 0 mg/kg, 120 h, dose level Control, time 5 day
[3] = 2 mg/kg, 72 h, dose level Low, time 3 day

Structure (SMILES): Cc1ccc(N(CC2=NCCN2)c2cccc(O)c2)cc1 [PHENTOLAMINE]
- ABSOLUTE BASOPHIL [1]: 0 CELLS/uL
- ABSOLUTE EOSINOPHIL [1]: 53.17 CELLS/uL
- ABSOLUTE LYMPHOCYTE [1]: 13731.5 CELLS/uL
- ABSOLUTE MONOCYTE [1]: 186.17 CELLS/uL
- ABSOLUTE SEGMENTED NEUTROPHIL [1]: 1645.83 CELLS/uL
- BASOPHIL [1]: 0%
- EOSINOPHIL [1]: 0.33%
- ERYTHROCYTE COUNT [1]: 5.57 x10E6/uL
- HEMATOCRIT [1]: 36.33%
- HEMOGLOBIN [1]: 13.47 G/DL
- LEUKOCYTE COUNT [1]: 15.62 x10E3/uL
- LYMPHOCYTE [1]: 88.5%
- MEAN CORPUSCULAR HEMOGLOBIN [1]: 24.22 pg
- MEAN CORPUSCULAR HEMOGLOBIN CONCENTRATION [1]: 37.1 G/DL
- MEAN CORPUSCULAR VOLUME [1]: 65.35 fL
- MONOCYTE [1]: 1.17%
- NEUTROPHIL [1]: 10%
- NUCLEATED RED BLOOD CELLS [1]: 0.17 /100WBC
- PLATELET COUNT [1]: 1295.5 x10E3/uL
- ALANINE AMINOTRANSFERASE [1]: 46.83 u/L
- ALBUMIN [1]: 4.37 G/DL
- ALKALINE PHOSPHATASE [1]: 414.33 u/L
- ASPARTATE AMINOTRANSFERASE [1]: 72.5 u/L
- BLOOD UREA NITROGEN [1]: 17 mg/dL
- CARBON DIOXIDE [1]: 23.5 mmol/L
- CHLORIDE [1]: 102 MEQ/L
- CHOLESTEROL [1]: 80.33 mg/dL
- CREATINE PHOSPHOKINASE [1]: 207.83 u/L
- CREATININE [1]: 0.22 mg/dL
- GLUCOSE [1]: 172.17 mg/dL
- LACTATE DEHYDROGENASE [1]: 131 u/L
- LIPASE [1]: 10.33 u/L
- PHOSPHORUS [1]: 11.75 mg/dL
- POTASSIUM [1]: 6.83 MEQ/L
- SODIUM [1]: 145.28 MEQ/L
- TOTAL BILIRUBIN [1]: 0.22 mg/dL
- TOTAL PROTEIN [1]: 6.22 G/DL
- URIC ACID [1]: 1.9 mg/dL
- ABSOLUTE BASOPHIL [2]: 0 CELLS/uL
- ABSOLUTE EOSINOPHIL [2]: 33 CELLS/uL
- ABSOLUTE LYMPHOCYTE [2]: 12184 CELLS/uL
- ABSOLUTE MONOCYTE [2]: 108 CELLS/uL
- ABSOLUTE SEGMENTED NEUTROPHIL [2]: 958.33 CELLS/uL
- BASOPHIL [2]: 0%
- EOSINOPHIL [2]: 0.17%
- ERYTHROCYTE COUNT [2]: 5.9 x10E6/uL
- HEMATOCRIT [2]: 36.58%
- HEMOGLOBIN [2]: 13.33 G/DL
- LEUKOCYTE COUNT [2]: 13.28 x10E3/uL
- LYMPHOCYTE [2]: 91.17%
- MEAN CORPUSCULAR HEMOGLOBIN [2]: 22.67 pg
- MEAN CORPUSCULAR HEMOGLOBIN CONCENTRATION [2]: 36.47 G/DL
- MEAN CORPUSCULAR VOLUME [2]: 62.13 fL
- MONOCYTE [2]: 0.83%
- NEUTROPHIL [2]: 7.83%
- NUCLEATED RED BLOOD CELLS [2]: 0.33 /100WBC
- PLATELET COUNT [2]: 1475.33 x10E3/uL
- ALANINE AMINOTRANSFERASE [2]: 47 u/L
- ALBUMIN [2]: 4.35 G/DL
- ALKALINE PHOSPHATASE [2]: 368.33 u/L
- ASPARTATE AMINOTRANSFERASE [2]: 90.83 u/L
- BLOOD UREA NITROGEN [2]: 15.5 mg/dL
- CARBON DIOXIDE [2]: 26.5 mmol/L
- CHLORIDE [2]: 103.33 MEQ/L
- CHOLESTEROL [2]: 71.83 mg/dL
- CREATINE PHOSPHOKINASE [2]: 585.33 u/L
- CREATININE [2]: 0.19 mg/dL
- GLUCOSE [2]: 171.17 mg/dL
- LACTATE DEHYDROGENASE [2]: 388.83 u/L
- LIPASE [2]: 10.83 u/L
- PHOSPHORUS [2]: 11.75 mg/dL
- POTASSIUM [2]: 6.21 MEQ/L
- SODIUM [2]: 143.7 MEQ/L
- TOTAL BILIRUBIN [2]: 0.17 mg/dL
- TOTAL PROTEIN [2]: 6.17 G/DL
- URIC ACID [2]: 1.98 mg/dL
- ABSOLUTE BASOPHIL [3]: 0 CELLS/uL
- ABSOLUTE EOSINOPHIL [3]: 44.67 CELLS/uL
- ABSOLUTE LYMPHOCYTE [3]: 11097.67 CELLS/uL
- ABSOLUTE MONOCYTE [3]: 122.33 CELLS/uL
- ABSOLUTE SEGMENTED NEUTROPHIL [3]: 968.67 CELLS/uL
- BASOPHIL [3]: 0%
- EOSINOPHIL [3]: 0.33%
- ERYTHROCYTE COUNT [3]: 5.48 x10E6/uL
- HEMATOCRIT [3]: 35.63%
- HEMOGLOBIN [3]: 13.4 G/DL
- LEUKOCYTE COUNT [3]: 12.23 x10E3/uL
- LYMPHOCYTE [3]: 90.67%
- MEAN CORPUSCULAR HEMOGLOBIN [3]: 24.5 pg
- MEAN CORPUSCULAR HEMOGLOBIN CONCENTRATION [3]: 37.6 G/DL
- MEAN CORPUSCULAR VOLUME [3]: 65.03 fL
- MONOCYTE [3]: 1%
- NEUTROPHIL [3]: 8%
- NUCLEATED RED BLOOD CELLS [3]: 0 /100WBC
- PLATELET COUNT [3]: 1379.67 x10E3/uL
- ALANINE AMINOTRANSFERASE [3]: 31.67 u/L
- ALBUMIN [3]: 4.47 G/DL
- ALKALINE PHOSPHATASE [3]: 406 u/L
- ASPARTATE AMINOTRANSFERASE [3]: 74 u/L
- BLOOD UREA NITROGEN [3]: 18.67 mg/dL
- CARBON DIOXIDE [3]: 19.67 mmol/L
- CHLORIDE [3]: 104.67 MEQ/L
- CHOLESTEROL [3]: 76.67 mg/dL
- CREATINE PHOSPHOKINASE [3]: 368.67 u/L
- CREATININE [3]: 0.22 mg/dL
- GLUCOSE [3]: 166 mg/dL
- LACTATE DEHYDROGENASE [3]: 137.33 u/L
- LIPASE [3]: 10.33 u/L
- PHOSPHORUS [3]: 12.63 mg/dL
- POTASSIUM [3]: 6.72 MEQ/L
- SODIUM [3]: 145.53 MEQ/L
- TOTAL BILIRUBIN [3]: 0.13 mg/dL
- TOTAL PROTEIN [3]: 6.27 G/DL
